Results reported in ChEMBL document CHEMBL1201862, “PubChem BioAssay data set” (2004).
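Each compound was tested at five concentrations against cells in 96-well plates for 48 hours. At the GI50, growth is halved.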 Activity calls are given as the source filed them. Cut-off read from the data, not from the text of the source: active = GI50 up to about 1.1 µM and inactive = higher.

How the values were obtained:
Assay in all cases: NCI anticancer screen, dose series, 48 h
A498 = tested on: A498
A549 = tested on: A549
ACHN = tested on: ACHN
CCRF-CEM = tested on: CCRF-CEM
HOP-92 = tested on: HOP-92
Hs-578T = tested on: Hs-578T
K562 = tested on: K562
MDA-MB-231 = tested on: MDA-MB-231
MDA-N = tested on: MDA-N
MOLT-4 = tested on: MOLT-4
NCI-H23 = tested on: NCI-H23
NCI/ADR-RES = tested on: NCI/ADR-RES
SK-MEL-5 = tested on: SK-MEL-5
SR = tested on: SR
UACC-257 = tested on: UACC-257
IGROV-1 = tested on: IGROV-1
MCF7 = tested on: MCF7
RXF 393 = tested on: RXF 393
SF-539 = tested on: SF-539

Measured: GI50

OC1(c2ccc(-c3ccccc3)cc2)c2ccccc2C2=NCCN21 (stereo unspecified)
inactive: A498 31.6 µM | A549 84.9 µM | ACHN 20.6 µM | CCRF-CEM 39.9 µM | HOP-92 50.4 µM | Hs-578T 22.4 µM | K562 70.5 µM | MDA-MB-231 56.1 µM | MDA-N > 100 µM | MOLT-4 27.1 µM | NCI-H23 20.1 µM | NCI/ADR-RES 29.2 µM | SK-MEL-5 19.8 µM | SR 33.8 µM | UACC-257 36.1 µM

Cc1nnc2n(c1=O)CCCN2C
inactive: A549 > 100 µM | ACHN > 100 µM | CCRF-CEM > 100 µM | HOP-92 > 100 µM | Hs-578T > 100 µM | IGROV-1 > 100 µM | K562 > 100 µM | MCF7 > 100 µM | MDA-MB-231 > 100 µM | MDA-N > 100 µM | MOLT-4 > 100 µM | NCI-H23 > 100 µM | RXF 393 > 100 µM | SF-539 > 100 µM | SK-MEL-5 > 100 µM | SR > 100 µM

O=C(O)C1CCCN1Cc1cc2ccccc2c2ccccc12 (stereo unspecified)
inactive: A498 > 100 µM | A549 > 100 µM | ACHN > 100 µM | HOP-92 > 100 µM | Hs-578T > 100 µM | IGROV-1 > 100 µM | K562 40.1 µM | MCF7 > 100 µM | MDA-MB-231 > 100 µM | MDA-N > 100 µM | MOLT-4 > 100 µM | NCI-H23 > 100 µM | NCI/ADR-RES > 100 µM | RXF 393 > 100 µM | SF-539 > 100 µM | SK-MEL-5 > 100 µM | UACC-257 > 100 µM

CCN(CC)CCC1CCCCN1CC(=O)N1c2ccccc2NC(=O)CC1C (stereo unspecified)
inactive: A498 > 100 µM | A549 > 100 µM | ACHN > 100 µM | CCRF-CEM > 100 µM | HOP-92 > 100 µM | Hs-578T > 100 µM | IGROV-1 > 100 µM | K562 > 100 µM | MCF7 > 100 µM | MDA-MB-231 > 100 µM | MDA-N > 100 µM | MOLT-4 > 100 µM | NCI-H23 > 100 µM | RXF 393 > 100 µM | SF-539 > 100 µM | SK-MEL-5 > 100 µM | SR > 100 µM | UACC-257 > 100 µM

CCN(CC)CCC1CCCCN1CC(=O)N1c2ccccc2NC(=O)c2ccccc21 (stereo unspecified)
inactive: A498 > 100 µM | A549 > 100 µM | ACHN > 100 µM | CCRF-CEM > 100 µM | HOP-92 > 100 µM | Hs-578T > 100 µM | IGROV-1 > 100 µM | K562 > 100 µM | MCF7 > 100 µM | MDA-MB-231 > 100 µM | MDA-N > 100 µM | MOLT-4 > 100 µM | NCI-H23 > 100 µM | RXF 393 > 100 µM | SF-539 > 100 µM | SK-MEL-5 > 100 µM | SR > 100 µM | UACC-257 > 100 µM

Oc1ccc2c(c1)OCC1c3ccccc3OC21 (stereo unspecified)
inactive: A498 > 100 µM | ACHN 39.8 µM | CCRF-CEM 30.3 µM | HOP-92 > 100 µM | Hs-578T 47.5 µM | IGROV-1 51.9 µM | K562 41.2 µM | MCF7 86.5 µM | MDA-MB-231 78 µM | MDA-N 35.6 µM | MOLT-4 19.6 µM | NCI-H23 44.9 µM | NCI/ADR-RES 37.8 µM | RXF 393 94.2 µM | SF-539 > 100 µM | SK-MEL-5 38.5 µM | UACC-257 86.9 µM

COC(=O)C1C(C(=O)OC)C2(OC(c3ccc(Cl)cc3)=CC2=O)C12OC(c1ccc(Cl)cc1)=CC2=O (stereo unspecified)
inactive: A498 29.9 µM | A549 34.1 µM | ACHN 19.9 µM | CCRF-CEM 3.01 µM | HOP-92 18.6 µM | Hs-578T 30.5 µM | IGROV-1 17 µM | K562 19.3 µM | MCF7 18 µM | MDA-MB-231 26.4 µM | MDA-N 18.3 µM | MOLT-4 4.45 µM | NCI-H23 20.8 µM | RXF 393 17.5 µM | SF-539 18.3 µM | SK-MEL-5 19.3 µM | SR 1.96 µM | UACC-257 22.9 µM

Nc1nc(N)c2nc(CN(C=O)c3ccc(C(=O)O)cc3)cnc2n1
inactive: A549 6.14 µM | ACHN 3.94 µM | CCRF-CEM 4.15 µM | HOP-92 > 100 µM | Hs-578T > 100 µM | IGROV-1 44.5 µM | K562 1.6 µM | MCF7 5.31 µM | MDA-MB-231 > 100 µM | MDA-N 8.71 µM | MOLT-4 4.81 µM | NCI-H23 20 µM | RXF 393 > 100 µM | SF-539 8.26 µM | SK-MEL-5 63.4 µM | SR 10.1 µM | UACC-257 > 100 µM
